≈ marks a conversion by molar mass, not a printed value.
What was measured:
S. aureus NCTC 4163 = assay: MIC, twofold microdilution, standard strain; type: cell-based; conditions: Staphylococcus aureus, NCTC4163, 18 h
S. aureus ATCC 25923 = assay: MIC, twofold microdilution, standard strain; type: cell-based; conditions: Staphylococcus aureus, ATCC25923, 18 h
S. aureus ATCC 6538 = assay: MIC, twofold microdilution, standard strain; type: cell-based, Staphylococcus aureus; conditions: Staphylococcus aureus, ATCC6538; standard strain, 18 h
S. aureus ATCC 29213 = assay: MIC, twofold microdilution, standard strain; type: cell-based; conditions: Staphylococcus aureus, ATCC29213, 18 h
[1] = tested on: S. epidermidis ATCC 12228; assay: MIC, twofold microdilution, standard strain; type: cell-based; conditions: Staphylococcus epidermidis, ATCC12228, 18 h
[2] = tested on: S. epidermidis ATCC 35984; assay: MIC, twofold microdilution, standard strain; type: cell-based; conditions: Staphylococcus epidermidis, ATCC35984, 18 h
P. aeruginosa ATCC 15442 = assay: MIC, twofold microdilution, standard strain; type: cell-based, Pseudomonas aeruginosa; conditions: Pseudomonas aeruginosa, ATCC15442; standard strain, 18 h
E. coli ATCC 25922 = assay: MIC, twofold microdilution, standard strain; type: cell-based, Escherichia coli; conditions: Escherichia coli, ATCC25922; standard strain, 18 h
S. aureus 180 = assay: MIC, twofold microdilution, clinical strain; type: cell-based; conditions: Staphylococcus aureus, 18 h
S. aureus 5595 = assay: MIC, twofold microdilution, clinical strain; type: cell-based; conditions: Staphylococcus aureus, 18 h
S. aureus T5595 = assay: MIC, twofold microdilution, clinical strain; type: cell-based, Staphylococcus aureus; conditions: Staphylococcus aureus, T5595, 18 h
S. aureus T5591 = assay: MIC, twofold microdilution, clinical strain; type: cell-based, Staphylococcus aureus; conditions: Staphylococcus aureus, T5591, 18 h
S. epidermidis 4341 = assay: MIC, twofold microdilution, clinical strain; type: cell-based; conditions: Staphylococcus epidermidis, 18 h
S. epidermidis 5253 = assay: MIC, twofold microdilution, clinical strain; type: cell-based, Staphylococcus epidermidis; conditions: Staphylococcus epidermidis, 5253, 18 h
S. epidermidis KR4243/1 = assay: MIC, twofold microdilution, clinical strain; type: cell-based; conditions: Staphylococcus epidermidis, 18 h
S. pasteuri KR 4358 = assay: MIC, twofold microdilution, clinical strain; type: cell-based; conditions: Staphylococcus pasteuri, KR4358, 18 h
P. aeruginosa 37 = assay: MIC, twofold microdilution, clinical strain; type: cell-based; conditions: Pseudomonas aeruginosa, 18 h
P. aeruginosa 659 = assay: MIC, twofold microdilution, clinical strain; type: cell-based; conditions: Pseudomonas aeruginosa, 18 h
E. coli 951 = assay: MIC, twofold microdilution, clinical strain; type: cell-based; conditions: Escherichia coli, 18 h
E. coli 520 = assay: MIC, twofold microdilution, clinical strain; type: cell-based; conditions: Escherichia coli, 18 h
E. coli 600 = assay: MIC, twofold microdilution, clinical strain; type: cell-based, Escherichia coli; conditions: Escherichia coli, 600, 18 h
E. cloacae 8 = assay: MIC, twofold microdilution, clinical strain; type: cell-based, Escherichia cloacae; conditions: Enterobacter cloacae, 8; clinical strain, 18 h
K. pneumoniae 28 = assay: MIC, twofold microdilution, clinical strain; type: cell-based; conditions: Klebsiella pneumoniae, 18 h
K. pneumoniae 510 = assay: MIC, twofold microdilution, clinical strain; type: cell-based, Klebsiella pneumoniae; conditions: Klebsiella pneumoniae, 510; clinical strain, 18 h
M. tuberculosis H37Rv = assay: Tuberculostatic activity, Microplate Alamar Blue Assay (MIC); type: cell-based, Mycobacterium tuberculosis; conditions: Mycobacterium tuberculosis, H37RV; MABA; read-out: MIC M. tuberculosis H37Rv
[3] = tested on: M. tuberculosis Spec. 192; assay: as above; type: cell-based; conditions: Mycobacterium tuberculosis, MABA, read-out: MIC M. tuberculosis Spec. 192 (sensitive to tuberculostatics)
PC3 cells = assay: MTT assay, cytotoxic activity; type: cell-based, human; conditions: Homo sapiens, PC-3, 72 h, MTT, 72 h
In short: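 PC3 cells were grown at 37 °C/5% CO2 and exposed to test compounds. Viability came from MTT reduction, as test absorbance over untreated-control absorbance × 100%.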

[4] = MTT assay, cytotoxic activity; type: cell-based; conditions: human, HaCaT cells (immortal keratinocytes); MTT, 72 h, normal cell line; read-out: IC50 HaCaT
In short: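 MTT assay on cells grown at 37 °C/5% CO2. Viability is expressed as relative MTT reduction: test absorbance divided by untreated-control absorbance, ×100%.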

[5] = tested on: clinical bacterial strains; assay: MIC, clinical isolates as groups of strains; type: cell-based; conditions: S. aureus T5595 and T5591

O=C(O)c1cn(C2CC2)c2cc(N3CCN(C(=O)CCC(F)(F)F)CC3)c(F)cc2c1=O [Compound 15, 7-[4-(4,4,4-Trifluorobutyryl)-piperazin-1-yl]-1-cyclopropyl-6-fluoro-4-oxo-1,4-dihydro-quinoline-3-carboxylic Acid]
MIC (S. aureus NCTC 4163): 0.2 µg/mL (≈ 0.439 µM)
MIC (S. aureus ATCC 25923): 0.2 µg/mL (≈ 0.439 µM)
MIC (S. aureus ATCC 6538): 0.2 µg/mL (≈ 0.439 µM)
MIC (S. aureus ATCC 29213): 0.2 µg/mL (≈ 0.439 µM)
MIC [1]: 0.2 µg/mL (≈ 0.439 µM)
MIC [2]: 0.2 µg/mL (≈ 0.439 µM)
MIC (P. aeruginosa ATCC 15442): 1 µg/mL (≈ 2.2 µM)
MIC (E. coli ATCC 25922): 1.6 µg/mL (≈ 3.51 µM)
MIC (S. aureus 180): 0.5 µg/mL (≈ 1.1 µM)
MIC (S. aureus 5595): 0.5 µg/mL (≈ 1.1 µM)
MIC (S. aureus T5595): 0.4 µg/mL (≈ 0.878 µM)
MIC (S. aureus T5591): 0.4 µg/mL (≈ 0.878 µM)
MIC (S. epidermidis 4341): > 25.6 µg/mL
MIC (S. epidermidis 5253): > 25.6 µg/mL
MIC (S. epidermidis KR4243/1): 0.2 µg/mL (≈ 0.439 µM)
MIC (S. pasteuri KR 4358): 0.2 µg/mL (≈ 0.439 µM)
MIC (P. aeruginosa 37): > 25.6 µg/mL
MIC (P. aeruginosa 659): > 25.6 µg/mL
MIC (E. coli 951): > 25.6 µg/mL
MIC (E. coli 520): 3.2 µg/mL (≈ 7.03 µM)
MIC (E. coli 600): 3.2 µg/mL (≈ 7.03 µM)
MIC (E. cloacae 8): > 25.6 µg/mL
MIC (K. pneumoniae 28): > 25.6 µg/mL
MIC (K. pneumoniae 510): > 25.6 µg/mL
MIC (M. tuberculosis H37Rv): 64 µg/mL (≈ 141 µM)
MIC [3]: 64 µg/mL (≈ 141 µM)
IC50 (PC3 cells): 15.7 ± 3.8 µM
IC50 at 72 h [4]: 85.5 ± 9.2 µM
share of the reference (CP) activity [5]: 62.5%
